Earlier results on 1 compound are cited in patent US8088935B2, “Compounds and methods for the treatment of asthma” (Ironwood Pharmaceuticals, Inc., priority 2003, dated 2012).

The conditions of series [1]: toxicity studies.

The structures appear in SMILES notation. Bounds are passed on as bounds.

For `O=C(O)c1cc(=O)c2c(OCC(O)COc3cccc4oc(C(=O)O)cc(=O)c34)cccc2o1` [Cromolyn, disodium cromoglycate], the acute toxicity entry in series [1] was “impressively low order of acute toxicity”. For the same compound, the biologic half-life (in vivo) is reported as 46-99 minutes. The “Peak plasma levels occur (time)” value (inhaled) is not above 15 min.
